Literature values as cited in paper PMC9475419 (RSC Advances, 2022).
Entries after “also recorded” stand apart in the source; their conditions may differ.

Key:
[1] = 15 Pep1 per AuNP (3.6 nm); cited from earlier work
[2] = cited from earlier work

CGSTIYASYYESGHGC [Pep1]
suppression of non-specific binding of AuNPs by Pep1 [1]: enough to suppress the non-specific binding surface of AuNPs; also recorded: could sufficiently suppress the non-specific binding of AuNPs | structure and function of free peptide [2]: unstructured and non-functional
